{"source": "patent US20020142982A1", "about": "“Method for regulating angiogenesis” (priority 1999, published 2002)", "key": {"[1]": {"test_system": "HUVEC", "assay": "Actin cytoskeleton (stress fibers, cortical actin) in HUVEC, phalloidin staining", "type": "cell-based, human", "conditions": "500 nM SPP, 30 minutes", "procedure": "SPP is known to induce Rho-dependent actin stress fibers in NIH3T3 fibroblasts. To disclose Rho- or Rac-dependence, HUVEC were plated at 2×10^5 cells in 35 mm glass bottom petri dishes (Plastek cultureware, Mat Tek Corporation, Ashland Mass.). Two days later, recently confluent cells were washed and changed to medium M199 supplemented with 10% dialyzed charcoal-stripped fetal bovine serum (CFBS) and growth factors for 16 hours. Approximately 500-800 cells were then microinjected cytoplasmically with Rho inhibitor C3 exoenzyme (0.1 μg/μL, Calbiochem) or dominant negative N17Rac protein (0.35 μg/μl; Ridley, A., et al., Cell 70: 401-410 (1992)) using Femtotips (Eppendorf) at 100 hPa/0.2 sec. Injected cells were marked by coinjection of FITC-rabbit IgG (5 mg/mL, Cappel).\nSubsequently, cells were treated with or without SPP. After treatment cells were washed with ice-cold PBS, fixed with 4% formaldehyde at room temperature or methanol at −20° C. for 15 minutes. In the case of formaldehyde fixation, cells were permeabilized with 0.2% Triton X-100 (TX-100). Actin microfilaments were visualized by staining with either FTOC- or TRITC-conjugated phalloidin (0.05 μg/mL, Sigma) for 30 minutes at room temperature."}, "[2]": {"test_system": "HUVEC", "assay": "C2-Ceramide-induced apoptosis of HUVEC (DNA fragmentation)", "type": "cell-based, human", "conditions": "SPP 10 to 500 nM, 1 μM C2-Ceramide, 12 hours", "procedure": "The ability of SPP to protect endothelial cells from apoptosis was investigated. In these experiments, HUVEC were treated with 1 μM C2-Ceramide for 12 hours and apoptosis was measured in the following manner: HUVEC were plated onto coverslips and allowed to grow for 2 days. Cells were washed three times with medium M199, and treated with 1 μM C2-Ceramide (Biomol) for 12 hours in the presence or absence of SPP. Subsequently, cells were fixed with methanol at −20° C. for 5 minutes, air dried, and stained with Hoechst 33258 dye (0.5 μg/mL for 5 minutes; Sigma Chemical Co., St. Louis, Mo.). The apoptotic nuclei were identified with the aid of a Zeiss Axiovert 100TB fluorescence microscope. For quantification, HUVEC were labeled with ^3Hmethyl-thymidine (5 μCi/mL, NEN DuPont) for 24 hours. Following three washes with medium M199, cells were treated with C2-Ceramide as above. 12 hours later, cells were extracted with lysis buffer (5 mM tris, pH 7.4, 2 mM EDTA, 0.5% TX-100) at 4° C. for 20 minutes. After centrifugation (15,000 g, 20 minutes), the radioactivity present in the supernatant and sediment was measured by liquid scintillation counting. The percentage of DNA fragmentation was determined as ((supernatant cpm)/(supernatant cpm+sediment cpm))×100%.\nSPP+PTx and SPP+PD98059 (10 μM), respectively, for 2 hours prior to the addition of C2-Ceramide (1 μM) and SPP (10 to 500 nM). Data are mean±standard deviation of triplicate determinations from a representative experiment which was repeated two times. […] A similar effect was also seen when growth factor withdrawal, and 15-deoxy Δ^12,14 prostaglandin J2 were used as apoptotic stimuli (data not shown). […] Therefore SPP induced endothelial cell survival requires the Gi/ERK signaling pathway."}, "[3]": {"test_system": "EDG-1", "assay": "EDG-1 phosphorylation in 32P-labeled HEK293EDG-1 cells", "type": "cell-based", "conditions": "100 nM S1P", "procedure": "FIG. 26 is an SDS PAGE showing that S1P treatment induces EDG-1 phosphorylation. HEK293EDG-1 were labeled with [^32P]-orthophosphate, and stimulated with 100 nM S1P for indicated times. Some cultures were treated with 10 μM LY294002.\n(§1) To label the EDG-1 receptor in HUVEC and HEK293EDG-1 cells, they were pre-incubated in phosphate-free DMEM (GIBCO-BRL) for 2 hr. Subsequently, cells were labeled with [^32P] orthophosphate (80 μCl/ml) for 3 hr. To examine the effect of P1-3 kinase, cultures were treated with wortmannin (100 nM) or LY294002 (10 μM) during tine last hour of labeling. After SPP stimulation, ^32P-labeled EDG-1 receptor was immunoprecipitated with either chicken anti-EDG-1 1gY or anti-M2, resolved on SDS-PAGE, and visualized by autoradiography."}, "[4]": {"test_system": "EDG-1", "assay": "Phosphorylation of endogenous EDG-1 in 32P-labeled HUVEC", "type": "cell-based, human", "conditions": "S1P 5-60 min", "procedure": "(Upper panel) Normal HUVEC cells were labelled with [^32P]-orthophosphate, and stimulated with 100 nM S1P for indicated times. Cell extracts were immunoprecipitated with the affinity-purifed anti-EDG-1 IgY, separated on a SDS-PAGE and autoradiographed. (Middle panel) Some cells were treated with 10 μM LY294002 or 100 nM Wortmannin prior to stimulation with S1P and EDG-1 phosphorylation was examined as above. (Lower panel) Some cells were transduced with 100 MOI of wild-type (wt)-Akt, dominant negative (dn)-Akt or the β-gal virus for 12 h prior to stimulation with S1P. EDG-1 phosphorylation was examined as above.\nas §1\nChicken anti-human EDG-1 antibodies against human EDG-1 polypeptide expressed in E. coli were raised in Aves Labs, Tigard, Oreg. This antibody specifically detected EDG-1 polypeptide in HUVEC cells and transfected HEK293 cells. […]"}, "[5]": {"test_system": "bovine microvascular endothelial cells", "assay": "Morphogenesis of bovine microvascular endothelial cells", "type": "cell-based", "conditions": "SPP 100 nM to 1 μM, data not shown"}}, "data": [{"smiles": "CCCCCCCCCCCCC/C=C/[C@@H](O)[C@@H](N)COP(=O)(O)O", "note": "[SPP, sphingosine-1-phosphate]", "values": [{"measurement": "formation of stress fibers and cortical actin", "setting": "[1]", "result": "induced the formation of stress fibers"}, {"measurement": "protection from apoptosis induced by C2-Ceramide", "setting": "[2]", "result": "significantly protected"}, {"measurement": "phosphorylation of EDG-1", "setting": "[3]", "result": "induced a time-dependent phosphorylation"}, {"measurement": "radiolabeling of the endogenous EDG-1 polypeptide", "setting": "[4]", "result": "increased"}, {"measurement": "morphogenesis of bovine microvascular endothelial cells", "setting": "[5]", "result": "induced morphogenesis"}]}]}
